Experimental data from publication PMC9865589, “Synthesis and Evaluation of Novel S-alkyl Phthalimide- and S-benzyl-oxadiazole-quinoline Hybrids as Inhibitors of Monoamine Oxidase and Acetylcholinesterase” (Pharmaceuticals, 2022).
Where “and” joins values, the source holds several entries; their conditions need not be identical. Identical values can stand only once.

Key:
Assay type in all cases: biochemical
MAO-A = target: T1, MAO-A (Homo sapiens, UniProt P21397); test: Monoamine oxidase A inhibition assay (Amplex red fluorescence); details: for IC50: average ± SEM, triplicate
T1 sequence (P21397 1-527): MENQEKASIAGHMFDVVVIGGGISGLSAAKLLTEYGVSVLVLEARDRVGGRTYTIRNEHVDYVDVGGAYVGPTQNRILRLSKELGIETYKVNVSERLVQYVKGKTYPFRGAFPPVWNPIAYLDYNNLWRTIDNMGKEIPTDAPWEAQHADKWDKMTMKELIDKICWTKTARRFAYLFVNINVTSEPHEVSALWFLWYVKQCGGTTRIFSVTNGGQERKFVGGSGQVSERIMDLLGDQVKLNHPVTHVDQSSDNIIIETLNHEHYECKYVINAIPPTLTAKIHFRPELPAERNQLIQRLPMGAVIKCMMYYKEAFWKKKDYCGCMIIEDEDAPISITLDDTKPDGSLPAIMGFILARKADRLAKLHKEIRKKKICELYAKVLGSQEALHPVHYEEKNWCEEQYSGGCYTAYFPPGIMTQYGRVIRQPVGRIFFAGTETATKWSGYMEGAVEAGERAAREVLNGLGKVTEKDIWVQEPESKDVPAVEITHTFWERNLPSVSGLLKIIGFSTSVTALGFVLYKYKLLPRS
Experimental: (§1) Different test chemicals and substrate concentrations were utilized in the kinetic experiments. Lineweaver-Burk plots were employed to determine the kind of inhibition, and they were used to track how the inhibitor affected Km and Vmax by plotting the reciprocal reaction rate against the reciprocal substrate concentrations.
(§2) According to the previously reported protocol, the synthesized compounds’ action on the monoamine oxidase (MAO-A and MAO-B) enzymes was tested. The enzyme was produced just 15 to 20 min before, at a cold room temperature. […] White 96-well plates were utilized for the test. The assay volume was 100 μL, having 60 μL buffer (pH 7.4) and 10 μL test compound (0.1 mM, 10% DMSO), followed by adding enzyme 10 μL (26 μg of protein for MAO-A and 5.0 μg for MAO-B). For MAO-A and MAO-B, the mixture was incubated for 20 and 15 min, respectively. The mixture was then given 10 μL of the substrate and 10 μL of newly prepared Amplex red. […] The non-linear curve fitting tool PRISM 5.0 (GraphPad, San Diego, CA, USA) was employed to compute IC50 values.

MAO-B = target: T2, MAO-B (Homo sapiens, UniProt P27338); test: biochemical
T2 sequence (P27338 1-520): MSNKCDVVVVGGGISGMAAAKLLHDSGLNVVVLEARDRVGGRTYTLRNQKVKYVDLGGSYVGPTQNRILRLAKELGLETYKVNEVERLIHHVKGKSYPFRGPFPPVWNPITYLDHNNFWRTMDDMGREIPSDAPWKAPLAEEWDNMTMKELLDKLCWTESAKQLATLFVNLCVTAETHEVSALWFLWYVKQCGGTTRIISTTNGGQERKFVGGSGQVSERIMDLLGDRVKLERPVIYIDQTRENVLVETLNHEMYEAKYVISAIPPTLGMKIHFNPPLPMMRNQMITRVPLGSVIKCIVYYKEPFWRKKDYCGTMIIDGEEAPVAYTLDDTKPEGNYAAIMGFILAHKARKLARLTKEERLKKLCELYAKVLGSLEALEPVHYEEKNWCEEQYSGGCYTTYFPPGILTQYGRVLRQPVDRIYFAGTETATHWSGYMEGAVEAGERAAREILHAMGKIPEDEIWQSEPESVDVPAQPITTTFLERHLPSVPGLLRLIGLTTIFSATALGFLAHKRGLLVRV
Experimental: as §1, §2

AChE = AChE (Homo sapiens, UniProt P22303); test: biochemical; details: for IC50: average ± SEM, triplicate
Sequence of AChE (P22303 32-614): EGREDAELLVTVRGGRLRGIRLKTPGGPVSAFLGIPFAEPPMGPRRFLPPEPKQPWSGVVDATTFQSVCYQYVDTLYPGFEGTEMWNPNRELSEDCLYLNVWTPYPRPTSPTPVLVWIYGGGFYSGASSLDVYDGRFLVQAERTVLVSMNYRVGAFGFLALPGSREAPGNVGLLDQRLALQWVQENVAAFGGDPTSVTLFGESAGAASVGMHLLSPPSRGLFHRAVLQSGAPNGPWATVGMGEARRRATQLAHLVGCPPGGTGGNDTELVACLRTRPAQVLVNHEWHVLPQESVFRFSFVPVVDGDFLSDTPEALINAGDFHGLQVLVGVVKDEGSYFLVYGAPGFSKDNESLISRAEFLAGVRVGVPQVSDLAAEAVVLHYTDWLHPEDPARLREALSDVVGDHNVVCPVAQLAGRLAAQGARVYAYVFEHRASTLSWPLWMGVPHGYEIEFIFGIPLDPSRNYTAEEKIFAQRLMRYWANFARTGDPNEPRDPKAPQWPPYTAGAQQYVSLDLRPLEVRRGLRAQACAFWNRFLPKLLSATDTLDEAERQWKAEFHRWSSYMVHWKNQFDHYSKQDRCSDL
Description: as §1
All substances were put through a little modified version of Ellman’s test to gauge the effectiveness of their ability to inhibit acetylcholinesterase (AChE). Released thiocholine reacts with chromogenic reagent 5,5-dithio-bis (2-nitrobenzoic) acid to produce a colorful product […]. At a concentration of 2.5 units/mL, the enzyme solutions were prepared. The assay volume was 100 μL, having 60 μL buffer and 10 μL test compound (0.1 mM, 10% DMSO), pursued by inserting enzyme 10 μL […]. The mixture was incubated for 10 min. 10 μL of the substrate and 10 μL of DTNB were added to the mixture.

[1] = Lineweaver-Burk plots, Vmax unaffected, Km increased

Structure (SMILES)	type of inhibition of MAO-A (MAO-A; [1])	IC50 (MAO-A)	IC50 (MAO-B) [µM]	IC50 (AChE) [µM]	type of inhibition of AChE (AChE; [1])	type of inhibition of MAO-B (MAO-B; [1])
O=C1c2ccccc2C(=O)N1CSc1nnc(-c2cc(-c3ccccc3)nc3ccccc23)o1 [Compound 5a, 2-((5-(2-Phenylquinolin-4-yl)-1,3,4-oxadiazol-2-ylthio)methyl)isoindoline-1,3-dione]	pure competitive type of inhibition	0.91 ± 0.15 µM	1.59 ± 1.66	1.4 ± 0.45		
O=C1c2ccccc2C(=O)N1CCSc1nnc(-c2cc(-c3ccccc3)nc3ccccc23)o1 [Compound 5b, 2-(2-(5-(2-Phenylquinolin-4-yl)-1,3,4-oxadiazol-2-ylthio)ethyl)isoindoline-1,3-dione]		1.81 ± 0.38 µM	2.61 ± 2.48	2.55 ± 0.96		
O=C1c2ccccc2C(=O)N1CCCSc1nnc(-c2cc(-c3ccccc3)nc3ccccc23)o1 [Compound 5c, 2-(3-(5-(2-Phenylquinolin-4-yl)-1,3,4-oxadiazol-2-ylthio)propyl)isoindoline-1,3-dione]		3.31 ± 0.8 µM	3.39 ± 0.42	1.02 ± 0.65	pure competitive type of inhibition	
O=C1c2ccccc2C(=O)N1CCCCSc1nnc(-c2cc(-c3ccccc3)nc3ccccc23)o1 [Compound 5d, 2-(4-(5-(2-Phenylquinolin-4-yl)-1,3,4-oxadiazol-2-ylthio)butyl)isoindoline-1,3-dione]		3.18 ± 1.23 µM	3.76 ± 1.04	2.38 ± 0.92		
O=C1c2ccccc2C(=O)N1CCCCCSc1nnc(-c2cc(-c3ccccc3)nc3ccccc23)o1 [Compound 5e, 2-(5-(5-(2-Phenylquinolin-4-yl)-1,3,4-oxadiazol-2-ylthio)pentyl)isoindoline-1,3-dione]		4.14 ± 0.35 µM	3.84 ± 0.91	1.29 ± 0.75		
O=C1c2ccccc2C(=O)N1CCCCCCSc1nnc(-c2cc(-c3ccccc3)nc3ccccc23)o1 [Compound 5f, 2-(6-(5-(2-Phenylquinolin-4-yl)-1,3,4-oxadiazol-2-ylthio)hexyl)isoindoline-1,3-dione]		4.88 ± 1.75 µM	0.84 ± 0.06	3.32 ± 0.45		pure competitive type of inhibition
FC(F)(F)c1ccc(CSc2nnc(-c3cc(-c4ccccc4)nc4ccccc34)o2)cc1 [Compound 6a, 4-(5-(4-(Trifluoromethyl)benzylthio)-1,3,4-oxadiazol-2-yl)-2-phenylquinoline]		1.02 µM and 1.51 µM	3.71 ± 2.88	3.23 ± 0.95		
FC(F)(F)c1cccc(CSc2nnc(-c3cc(-c4ccccc4)nc4ccccc34)o2)c1 [Compound 6b, 4-(5-(3-(Trifluoromethyl)benzylthio)-1,3,4-oxadiazol-2-yl)-2-phenylquinoline]		1.51 µM and 1.02 µM	2.71 ± 0.88	3.54 ± 1.05		
FC(F)(F)c1ccccc1CSc1nnc(-c2cc(-c3ccccc3)nc3ccccc23)o1 [Compound 6c, 4-(5-(2-(Trifluoromethyl)benzylthio)-1,3,4-oxadiazol-2-yl)-2-phenylquinoline]		6.81 ± 2.65 µM	5.59 ± 3.22	4.38 ± 1.45		
c1ccc(CSc2nnc(-c3cc(-c4ccccc4)nc4ccccc34)o2)cc1 [Compound 6d, 4-(5-(Benzylthio)-1,3,4-oxadiazol-2-yl)-2-phenylquinoline]		4.16 ± 1.71 µM	2.9 ± 1.85	4.98 ± 1.85		
